Experiment [1] concerns HT-29 (human colorectal adenocarcinoma) cells. The experiment in a line: Cell viability, trypan blue dye exclusion assay (antiproliferative activity). In kind it is cell-based. The note with it: HT-29, 72 h. On the procedure: (§1) The cell lines used in our study were purchased from ATCC (American Type Culture Collection). […] LN229 (human glioblastoma) cells were cultured in DMEM (D2902, Merck) supplemented with 3.5 g/L glucose and 5% FCS. NaHCO3 (S5761, Merck), as indicated in the manufacturer’s instructions, 100 U/mL penicillin, 100 μg/mL streptomycin, and 0.25 μg/mL amphotericin B (A5955, Merck) were added to the culture media. The cells were maintained at 37 °C in a humidified atmosphere incubator containing 5% carbon dioxide in air.
(§2) The cell viability was analyzed by a trypan blue dye exclusion assay. Briefly, 3–4 × 10^4 cells were seeded in each well of a 24-well cell culture plate and treated with test drugs or NPs at concentrations ranging from 1 to 30 nM and from 0.01 to 20 μM, respectively, after 24 of growth in standard conditions. After 72 h from the treatment, the cells were detached by trypsinization and counted by optical microscope.

For experiment [2], the system named is LN229 (human glioblastoma) cells. The experiment is described as above. In kind it is cell-based. The procedure: as §1, §2
Experiment [3] relates to MSTO-211H (human biphasic mesothelioma) cells. The experiment is described as above. In kind it is cell-based. The note with it: 72 h. The procedure:
as §1, §2

The subject of experiment [4] is MeT-5A (human mesothelium, non-tumorigenic) cells. The experiment is described as above. In kind it is cell-based. The note with it: 72 h. The procedure:
as §1, §2

The test system of experiment [5] is LN229, HT-29, MSTO-211H and MeT-5A cells. The experiment in a line: Antiproliferative activity compared across the cell line panel. In kind it is cell-based. The note with it: Homo sapiens; all four cell lines, 72 h; read-out: GI50 values (range over the cell lines). The procedure: The cell lines used in our study were purchased from ATCC (American Type Culture Collection). Specifically, we used LN-229 (ATCC CRL-2611), HT-29 (ATCC HTB-38), and MSTO-211H (ATCC CRL-2081). MeT-5A (ATCC CRL-9444), MSTO-211H (human biphasic mesothelioma), and Met-5A (human mesothelium) cells were grown in RPMI 1640 (R6504, Merck) supplemented with 2.38 g/L Hepes (H3375, Merck, St. Louis, MO, USA), 0.11 g/L pyruvate sodium (P5280, Merck), 2.5 g/L glucose (G6152, Merck), and 10% heat-inactivated fetal calf serum (FCS, F7524, Merck). HT-29 (human colorectal adenocarcinoma) cells were grown in RPMI 1640 (R6504, Merck) supplemented with 10% heat-inactivated FCS. LN229 (human glioblastoma) cells were cultured in DMEM (D2902, Merck) supplemented with 3.5 g/L glucose and 5% FCS. NaHCO3 (S5761, Merck), as indicated in the manufacturer’s instructions, 100 U/mL penicillin, 100 μg/mL streptomycin, and 0.25 μg/mL amphotericin B (A5955, Merck) were added to the culture media. The cells were maintained at 37 °C in a humidified atmosphere incubator containing 5% carbon dioxide in air.
The cell viability was analyzed by a trypan blue dye exclusion assay. […] After 72 h from the treatment, the cells were detached by trypsinization and counted by optical microscope. […]

The test system of experiment [6] is microtubules in LN229 cells. The experiment is described as follows: Confocal microscopy of microtubule status (anti-β-tubulin staining). In kind it is cell-based, human. The following applies: LN229, 4 h; Desa 3 µM, Np1b 200 µM, PTX and Np2b at indicated concentrations.
Protocol: LN229 cells (3 × 10^4) were seeded in 4-well cell culture chamber on a glass slide and cultured up to 50–60% confluence. […] After incubation, the cells were gently washed twice with PBS, fixed with 4% formaldehyde at room temperature for 15 min, washed twice with PBS, and permeabilized with 0.1% Triton X-100 (T8787, Merck) in PBS for 5 min in the dark. Again, the cells were washed twice with PBS and incubated for 30 min in the dark with 7% FCS in PBS. […] After washing twice with PBS, 0.001 mg/mL DAPI (MBD0015, Merck) was added for 15 min, then the cells were washed with PBS, and the coverslips were mounted on glass slides using Fluoroshield^TM (F6182, Merck). […] Particle counting and size distribution were estimated using the built-in Analyze Particles plugin in Image J (Fiji).
Experiment [7] concerns LN229 cells. The experiment is described as follows: Cell cycle analysis by flow cytometry (propidium iodide). In kind it is cell-based, human. The note with it: LN229, 48 h. On the procedure: A total of 2 × 10^5 LN229 cells were seeded in Petri culture plates, left to grow for 24 h in standard conditions, and then treated with CPT and Np3b at the indicated concentrations. After 48 h, the cells were harvested, centrifuged, combined with ice-cold 70% w/v ethanol, and left at 4 °C for 20 min. Then, the cells were centrifuged, and the pellet was resuspended in a final volume of 300 μL PBS containing 0.1 mg mL^−1 RNAse (R6513, Merck) and […] propidium iodide (P4170, Merck). The DNA content was quantified by a BD FACSAria III flow cytometer (BD Life Sciences) and the data were analyzed by BD FACSDiva software (version 9.0). Statistical analysis was performed by Student’s t-test.
(In flow cytometry, cells or beads pass a laser one at a time.)

Where two headings read alike, the source gives them in different places.

Broadly, the GI50 is the concentration giving 50% growth inhibition.

`CCCCCc1cc(O)c(C/C=C(\C)CCC=C(C)C)c(O)c1` [CBG, Cannabigerol]: the GI50 was 9700 ± 200 nM in experiment [1]; 5900 ± 1300 nM in experiment [2] (LN-229, 72 h); 16000 ± 2000 nM in experiment [3]; 16000 ± 2000 nM in experiment [4]; 5900 to 16000 nM in experiment [5].
As to `CC(=O)O[C@H]1C(=O)[C@@]2(C)[C@H]([C@H](OC(=O)c3ccccc3)[C@]3(O)C[C@H](OC(=O)[C@H](O)[C@@H](NC(=O)c4ccccc4)c4ccccc4)C(C)=C1C3(C)C)[C@]1(OC(C)=O)CO[C@@H]1C[C@@H]2O` [PTX, paclitaxel], the concentration for 50% growth inhibition (GI50) in experiment [1] was 2.8 ± 0.2 nM; in experiment [2] (LN-229, 72 h) it was 4.2 ± 0.7 nM; in experiment [3], 3.3 ± 0.6 nM; in experiment [4] it was 4.4 ± 0.1 nM. Also, the “effect on microtubule network” value in experiment [6] is on record as “polymerizing effect”.
As to `CC[C@@]1(O)C(=O)OCc2c1cc1n(c2=O)Cc2cc3ccccc3nc2-1` [CPT, camptothecin], the GI50 was 7.9 ± 0.8 nM in experiment [1] (mean ± SD, read-out: GI50); 7.9 ± 0.1 nM in experiment [2] (LN-229, LN229, 72 h, mean ± SD, read-out: GI50); 3.3 ± 1 nM in experiment [3] (mean ± SD, read-out: GI50); 7.8 ± 0.2 nM in experiment [4] (mean ± SD, read-out: GI50). In addition, in experiment [7] (20 nM CPT (control 11.7%)), the “cells in G2/M phase” value was 33.4%. Further, the “cells in G1 phase” value in experiment [7] (20 nM CPT (control 69.4%)) is on record as 49.4%.

The values are drawn from publication PMC12114796, “Self-Assembled Cannabigerol-Based Nanoparticles: Design, Synthesis, and Antiproliferative Activity” (Pharmaceutics, 2025).
